Patent publication US8231861B2, “Pancreatitis” (priority 2003, dated 2012)

How the values were obtained:
[1] = tested on: wild type and TLR-4 knock out mice; assay: Arginine-induced acute pancreatitis in wild type and TLR-4 knock out mice; assay type: in vivo; details: for pancreatitis outcome (in words): arginine 800 mg/100 g i.p. in two halves, evaluated three days later; for MPO activity in pancreas: after arginine i.p., FIG. 10
Method: To evaluate the effect of the absence of TLR4 in another model of pancreatitis, a new mouse model was created. […] See, e.g., Tani et al., Dig. Dis. Sci. 35, 367-374 (1990). Briefly, pancreatitis was induced in wild type and TLR-4 knock out mice by injecting (i.p.) arginine at a dose of 800 mg/100 g body weight. This dose of arginine was divided in two parts, one half injected at the beginning of the experiment and the other half injected one hour later. Three days later mice were sacrificed and the parameters relating to the severity of pancreatitis were evaluated. Analysis was performed substantially as described above.

[2] = tested on: wild type and TLR4−/− transgenic mice; details: mouse, in vivo, ip
Method: Studies were performed on wild type and TLR4−/− transgenic mice weighing about 25-30 grams. Animals were housed in cages under standard conditions at room temperature with a twelve-hour light and dark cycle. Food and drinking water were available ad libitum. Secretagogue-induced pancreatitis was elicited by the hourly (twelve times) intraperitoneal injection of caerulein (50 μg/kg). […] One hour after the final caerulein or saline injection, animals were sacrificed by CO2 asphyxia, and tissue and blood samples were rapidly prepared for study. Harvested blood was allowed to clot and then centrifuged, and serum was obtained for measurement of amylase. […]
Tissue myeloperoxidase (MPO) activity was used as a marker for the sequestration of neutrophils within the pancreas by quantitating photometrically using 3,3′,5,5′-tetramethylbenzidine as a substrate. Pancreatic edema was quantitated by measuring tissue water content and expressing it as a percentage of tissue wet weight. Serum amylase activity was quantitated as described in Singh et al., J. Clin. Invest., 108:1387-1395 (2001). The extent of pancreatic acinar cell necrosis was quantitated morphometrically by an observer who was not aware of the sample identity. […] Ten randomly chosen microscopic fields (×125) were examined for each tissue sample, and the extent of acinar cell injury/necrosis was expressed as a percentage of total acinar tissue. […]

Molecule	pancreatitis outcome (in words) ([1]; TLR4 knock out mice)	MPO activity in pancreas ([1]; TLR4−/− mice)	reduction of serum amylase activity in TLR4−/− mice as compared to wild type mice ([1]; after administration of arginine i.p., FIG. 9)	pancreatitis outcome (in words) ([1]; normal (wild type) mice)	MPO activity in pancreas ([1]; wild type mice)	reduction of serum amylase activity in TLR4−/− mice as compared to wild type mice [2]
N=C(N)NCCC[C@H](N)C(=O)O [arginine]	significantly milder pancreatitis	6.8±6.2	more than 2.5 fold	pancreatitis that was more severe than that observed with caerulein administration	472±320	–
caerulein	–	–	–	–	–	more than 1.6 fold
